Target: MAP4K1 (HPK1) (Homo sapiens (Human), UniProt Q92918)
Assay: MAP4K1 (HPK1) biochemical enzymatic activity, electrophoretic mobility shift (EZReader 2), ATP at APPKM (26 μM)
From the text: MAP4K1 (HPK1) and relevant off-target enzymatic activity was monitored using the Perkin Elmer electrophoretic mobility shift technology platform—the EZReader 2. […] Within the linear, steady-state phase of the kinase enzymatic reaction, the mixed pool of phosphorylated (product) and non-phosphorylated (substrate) peptides was passed through the microfluidic system of the PerkinElmer EZ Reader 2, under an applied electric potential difference. The presence of the phosphate group on the product peptide provided a difference in mass and charge between that of the substrate peptide, resulting in a separation of the substrate and product pools in the sample (Perrin et al. 2010). As the product and substrate peptide mixture passes the lasers within the instrument, these pools are detected (λex=488 nm, λent=568 nm) and resolved as separate peaks. The ratio between these peaks reflects the activity of the compound at that concentration, in that well, under those conditions.
Inhibitors were dissolved in 100% DMSO at a stock concentration of 10 mM. A 100×, 10-point, 4-fold serial dilution of each inhibitor was created in 100% DMSO either manually or on a Hamilton STAR liquid handler, starting at a relevant concentration, usually 1 mM. A volume of 0.130 μL of each concentration was transferred to the relevant wells of a 384-well plate (Greiner 781 201) in duplicate using a TTPLabtech Mosquito nano-litre dispenser. Using a Multidrop Combi, the remaining constituents of the kinase reaction were added to the 130 nL of dosed compound as follows (see table below for final reaction details):
Enzyme activity assays at the ^APPKM for ATP or 1 mM ATP: In each well of a 384-well plate, 0.1-15 nM of untreated enzyme was incubated in a total of 13 μL of buffer (100 mM HEPES pH 7.5, 0.015% Brij 35, 10 mM MgCl2, 1 mM DTT) with 1.5 μM fluorescent peptid and 20-1000 μM ATP, at 25° C., for 60-180 minutes in the presence or absence of a dosed concentration series of compound (1% DMSO final concentration). The kinase reactions were stopped by the addition of 70 μl of Stop buffer (100 mM HEPES pH 7.5, 0.015% Brij 35, 35 mM EDTA and 0.2% of Coating Reagent 3 (Caliper Lifesciences)). The plates were read on a Caliper EZReader 2 as described above.

Sequence of MAP4K1 (HPK1) (Q92918 whole entry): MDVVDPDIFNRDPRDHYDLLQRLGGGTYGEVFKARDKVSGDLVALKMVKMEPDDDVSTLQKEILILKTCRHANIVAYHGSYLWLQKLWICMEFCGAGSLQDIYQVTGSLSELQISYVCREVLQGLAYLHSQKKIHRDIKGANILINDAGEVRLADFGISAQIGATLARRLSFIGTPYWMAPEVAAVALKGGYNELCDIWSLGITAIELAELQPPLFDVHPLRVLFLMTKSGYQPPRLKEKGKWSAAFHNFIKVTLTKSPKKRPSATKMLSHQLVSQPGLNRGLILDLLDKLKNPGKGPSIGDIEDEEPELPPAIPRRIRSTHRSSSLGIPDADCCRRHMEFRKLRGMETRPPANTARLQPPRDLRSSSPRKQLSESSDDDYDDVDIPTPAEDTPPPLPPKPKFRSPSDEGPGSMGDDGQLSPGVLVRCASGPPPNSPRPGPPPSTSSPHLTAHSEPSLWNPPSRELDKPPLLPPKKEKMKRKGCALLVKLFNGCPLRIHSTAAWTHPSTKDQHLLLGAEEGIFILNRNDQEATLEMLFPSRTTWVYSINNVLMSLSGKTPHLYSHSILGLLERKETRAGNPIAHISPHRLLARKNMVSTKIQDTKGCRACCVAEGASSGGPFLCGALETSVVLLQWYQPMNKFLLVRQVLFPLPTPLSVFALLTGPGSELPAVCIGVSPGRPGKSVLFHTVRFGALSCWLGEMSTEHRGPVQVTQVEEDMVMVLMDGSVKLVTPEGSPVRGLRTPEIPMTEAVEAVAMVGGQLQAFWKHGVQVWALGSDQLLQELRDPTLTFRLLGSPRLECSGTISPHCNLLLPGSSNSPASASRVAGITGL

Row | Compound | IC50 (class designation) | IC50 (numeric value)
1 | COc1ncc(C(C)(C)N)c2cc(Nc3cnc(C#N)c(N4CCC[C@@H]4C)n3)ncc12 [Compound 49] | 0.31 to 1 nM | 1.01 nM
2 | COc1ncc(C2CCCN2)c2cc(Nc3ccc4c(n3)CC(C)(C)OC4=O)ncc12 (stereo not drawn) [Compound 50, 2-((8-Methoxy-5-(pyrrolidin-2-yl)-2,7-naphthyridin-3-yl)amino)-7,7-dimethyl-7,8-dihydro-5H-pyrano[4,3-b]pyridin-5-one] | > 10 nM | 52.6 nM
3 | COc1ncc(C(C)(C)N)c2cc(Nc3ccc4c(n3)[C@H]3CCC[C@H]3OC4=O)ncc12 [Compound 51] | < 0.3 nM | 0.26 nM
4 | COc1ncc(C(C)(C)N)c2cc(Nc3cnc(C#N)c(C(C)C(F)(F)F)n3)ncc12 (stereo not drawn) [Compound 63] | 1.1 to 10 nM | 6.46 nM
5 | C[C@H]1OC(=O)c2ccc(Nc3cc4c(C(C)(C)N)cnc(OC5CC5)c4cn3)nc2[C@@H]1C [Compound 65] | 0.31 to 1 nM | 0.56 nM
6 | CC[C@@](C)(N)c1cnc(OC2(C)CC2)c2cnc(Nc3ccc4c(n3)[C@@H](C)[C@H](C)OC4=O)cc12 [Compound 84] | 1.1 to 10 nM | 1.32 nM
7 | CC[C@@](C)(N)c1cnc(OC2(C)CC2)c2cnc(Nc3ccc4c(n3)[C@@H](C)C(C)(C)OC4=O)cc12 [Compound 86] | 1.1 to 10 nM | 2.03 nM
8 | C[C@@H]1OC(=O)c2ccc(Nc3cc4c([C@](C)(N)C5CC5)cnc(OC5(C)CC5)c4cn3)nc2[C@H]1C [Compound 89] | 1.1 to 10 nM | 5.12 nM
9 | C[C@@H]1c2nc(Nc3cc4c([C@@](C)(N)C5CC5)cnc(OC5(C)CC5)c4cn3)ccc2C(=O)OC1(C)C [Compound 90] | 1.1 to 10 nM | 3.42 nM
10 | CC[C@@](C)(N)c1cnc(OC2(C)CC2)c2cnc(Nc3ccc4c(n3)[C@@H](C)[C@@H](C)OC4=O)cc12 [Compound 93] | 1.1 to 10 nM | 3.65 nM
11 | C[C@@H]1c2nc(Nc3cc4c([C@@](C)(N)C5CC5)cnc(OC5(C)CC5)c4cn3)ccc2C(=O)O[C@@H]1C [Compound 95] | 1.1 to 10 nM | 4.54 nM
12 | COc1ncc([C@@](C)(N)C2CC2)c2cc(Nc3ccc4c(n3)C(C)(C)OC4=O)ncc12 [Compound 98] | > 10 nM | 19.1 nM
13 | CC1(C)Cc2nc(Nc3cc4c(C(C)(C)N)ccc(Cl)c4cn3)ccc2C(=O)O1 [Compound 104, 2-((5-(2-Aminopropan-2-yl)-8-chloroisoquinolin-3-yl)amino)-7,7-dimethyl-7,8-dihydro-5H-pyrano[4,3-b]pyridin-5-one] | < 0.3 nM | 0.13 nM
14 | CC(C)(N)c1cnc(OC2CC2)c2cnc(Nc3ccc4c(n3)C3(CC3)COC4=O)cc12 [Compound 107] | 0.31 to 1 nM | 0.62 nM
15 | C[C@H]1OC(=O)c2ccc(Nc3cc4c(C(C)(C)N)cnc(OC5CC5)c4cn3)nc2C12CC2 [Compound 119] | < 0.3 nM | 0.12 nM
16 | C[C@@H]1OC(=O)c2ccc(Nc3cc4c(C(C)(C)N)cnc(OC5CC5)c4cn3)nc2C12CC2 [Compound 120] | 0.31 to 1 nM | 0.5 nM
17 | CC[C@](C)(N)c1cnc(NC2CC2)c2cnc(Nc3ccc4c(n3)[C@@H](C)[C@H](C)OC4=O)cc12 [Compound 122] | < 0.3 nM | 0.16 nM
18 | CC1(C)CCc2nc(Nc3cc4c(C(C)(C)N)cnc(OC5CC5)c4cn3)ccc2C(=O)O1 [Compound 125] | 1.1 to 10 nM | 1.84 nM
19 | CC[C@H]1c2nc(Nc3cc4c(C(C)(C)N)cnc(OC5CC5)c4cn3)ccc2C(=O)O[C@H]1C [Compound 128] | 1.1 to 10 nM | 1.09 nM
20 | CC[C@@](C)(N)c1cnc(OC2CC2)c2cnc(Nc3ccc4c(n3)[C@](C)(CC)OC4=O)cc12 [Compound 129] | < 0.3 nM | 0.11 nM
21 | CC[C@H]1OC(=O)c2ccc(Nc3cc4c(C(C)(C)N)cnc(OC5CC5)c4cn3)nc2[C@@H]1C [Compound 130] | 0.31 to 1 nM | 0.46 nM
22 | CC[C@@H]1OC(=O)c2ccc(Nc3cc4c(C(C)(C)N)cnc(OC5CC5)c4cn3)nc2[C@H]1C [Compound 134] | 1.1 to 10 nM | 1.33 nM
23 | C[C@@H]1OC(=O)c2ccc(Nc3cc4c(C(C)(C)N)cnc(OC5CC5)c4cn3)nc2C1(C)C [Compound 137] | 0.31 to 1 nM | 0.46 nM
24 | CCCOc1ncc([C@](C)(N)CC)c2cc(Nc3ccc4c(n3)[C@@H](C)[C@H](C)OC4=O)ncc12 [Compound 142] | < 0.3 nM | 0.2 nM

Row | Compound | IC50 (class designation) | IC50 (numeric value)
25 | CCCOc1ncc([C@](C)(N)CC)c2cc(Nc3ccc4c(n3)CC(C)(C)OC4=O)ncc12 [Compound 143] | 0.31 to 1 nM | 0.31 nM
26 | CCCOc1ncc([C@@](C)(N)CC)c2cc(Nc3ccc4c(n3)CC(C)(C)OC4=O)ncc12 [Compound 144] | 1.1 to 10 nM | 3.89 nM
27 | CCCOc1ncc([C@@](C)(N)CC)c2cc(Nc3ccc4c(n3)[C@@H](C)[C@H](C)OC4=O)ncc12 [Compound 145] | 1.1 to 10 nM | 1.77 nM
28 | C[C@@H]1OC(=O)c2ccc(Nc3cc4c([C@](C)(N)C5CC5)cnc(NC5CC5)c4cn3)nc2[C@H]1C [Compound 149] | < 0.3 nM | 0.2 nM
29 | C[C@@H]1OC(=O)c2ccc(Nc3cc4c([C@@](C)(N)C5CC5)cnc(NC5CC5)c4cn3)nc2[C@H]1C [Compound 150] | 1.1 to 10 nM | 5.24 nM
30 | COc1ncc(C(C)(C)NC2CCC2)c2cc(Nc3ccc4c(n3)CC(C)(C)OC4=O)ncc12 [Compound 158, 2-((5-(2-(Cyclobutylamino)propan-2-yl)-8-methoxy-2,7-naphthyridin-3-yl)amino)-7,7-dimethyl-7,8-dihydro-5H-pyrano[4,3-b]pyridin-5-one] | 1.1 to 10 nM | 6.46 nM
31 | C[C@@H]1OC(=O)c2ccc(Nc3cc4c(C(C)(C)N)cnc(O[C@@H]5CCOC5)c4cn3)nc2[C@H]1C [Compound 160] | 1.1 to 10 nM | 1.25 nM
32 | C[C@@H]1OC(=O)c2ccc(Nc3cc4c(C(C)(C)N)cnc(O[C@H]5C[C@H](F)C5)c4cn3)nc2[C@H]1C [Compound 161] | 1.1 to 10 nM | 1.37 nM
33 | C[C@@H]1OC(=O)c2ccc(Nc3cc4c(C(C)(C)N)cnc(OCC5(F)CC5)c4cn3)nc2[C@H]1C [Compound 162] | < 0.3 nM | 0.24 nM
34 | C[C@@H]1OC(=O)c2ccc(Nc3cc4c(C(C)(C)N)cnc(O[C@H]5C[C@@H](F)C5)c4cn3)nc2[C@H]1C [Compound 163] | < 0.3 nM | 0.25 nM
35 | CC1(C)Cc2nc(Nc3cc4c([C@@](C)(N)C5CCC5)cnc(OC5CC5)c4cn3)ccc2C(=O)O1 [Compound 169] | 1.1 to 10 nM | 
36 | CC1(C)Cc2nc(Nc3cc4c(C(C)(C)NCCO)cnc(OC5CC5)c4cn3)ccc2C(=O)O1 [Compound 177, 2-((8-Cyclopropoxy-5-(2-((2-hydroxyethyl)amino)propan-2-yl)-2,7-naphthyridin-3-yl)amino)-7,7-dimethyl-7,8-dihydro-5H-pyrano[4,3-b]pyridin-5-one] | 1.1 to 10 nM | 6.52 nM
37 | CC1(Oc2ncc([C@](C)(N)C3CC3)c3cc(Nc4ccc5c(n4)C(C)(C)COC5=O)ncc23)CC1 [Compound 185] | 0.31 to 1 nM | 0.35 nM
38 | C[C@@H]1OC(=O)c2ccc(Nc3cc4c(C(C)(C)N)cnc(OC5(C)CC5)c4cn3)nc2C1(C)C [Compound 186] | 0.31 to 1 nM | 0.4 nM
39 | CC[C@](C)(N)c1cnc(OC2CC2)c2cnc(Nc3ccc4c(n3)C3(CC3)[C@H](C)OC4=O)cc12 [Compound 187] | < 0.3 nM | 0.06 nM
40 | COC[C@@](C)(N)c1cnc(OC2CC2)c2cnc(Nc3ccc4c(n3)[C@H](C)[C@H](C)OC4=O)cc12 [Compound 190] | < 0.3 nM | 0.19 nM
41 | CC[C@@H](N)c1cnc(OC2(C)CC2)c2cnc(Nc3ccc4c(n3)[C@@H](C)C(C)(C)OC4=O)cc12 [Compound 191] | 0.31 to 1 nM | 0.53 nM
42 | CC(C)(N)c1cnc(OC2CC2)c2cnc(Nc3ccc4c(n3)C3(CC3)C(C)(C)OC4=O)cc12 [Compound 195] | < 0.3 nM | 0.27 nM
43 | C[C@@H]1OC(=O)c2ccc(Nc3cc4c(C(C)(C)N)cnc(OC5(C)COC5)c4cn3)nc2[C@H]1C [Compound 197] | 0.31 to 1 nM | 0.34 nM
44 | CC1(Oc2ncc(C(C)(C)N)c3cc(Nc4cnc5c(c4)C(=O)C(C)(C)OC5=O)ncc23)COC1 [Compound 198] | < 0.3 nM | 0.27 nM
45 | CC1(Oc2ncc(C(C)(C)N)c3cc(Nc4ccc5c(n4)C4(CC4)C(C)(C)OC5=O)ncc23)CC1 [Compound 199] | 0.31 to 1 nM | 0.36 nM
46 | COC[C@@](C)(N)c1cnc(OC2CC2)c2cnc(Nc3ccc4c(n3)CC(C)(C)OC4=O)cc12 [Compound 200] | 0.31 to 1 nM | 0.48 nM
47 | COC[C@@](C)(N)c1cnc(OC)c2cnc(Nc3ccc4c(n3)[C@@H](C)C(C)(C)OC4=O)cc12 [Compound 201] | < 0.3 nM | 0.14 nM

Source: patent publication US11534441B2, “MAP4K1 inhibitors” (Blueprint Medicines Corporation, priority 2020, dated 2022)
